Read-outs that look alike come from different tables or passages of the source.
What was measured:
Assay type in all cases: biochemical
CDK6/CCND1 = CDK6/CCND1 (Homo sapiens, UniProt Q00534); test: CDK6 homogeneous time-resolved fluorescence (HTRF) kinase assay; conditions: 1 nM CDK6/CCND1, 1 mM ATP
In short: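 Recombinant CDK6/CCND1 (1 nM final) was preincubated with compound for 20 min at 23 °C in HEPES buffer with MgCl2, EGTA, DTT and Tween 20. Kinase reaction then ran 60 min at 23 °C with 1 mM ATP and 50 nM ULight-4E-BP1 (Thr37/46) peptide, and was stopped with EDTA.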

CDK1/CCNB1 = CDK1/CCNB1 (Homo sapiens, UniProt P06493); test: CDK1 homogeneous time-resolved fluorescence (HTRF) kinase assay; conditions: 0.5 nM CDK1/CCNB1, 1 mM ATP
In short: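 High-ATP (1 mM) HTRF assay with 0.5 nM CDK1/cyclin B1 and 50 nM ULight-4E-BP1 (Thr37/46) substrate, 60 min at 23 °C after 20-min compound preincubation. IC50 values come from dose-response curves.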

CDK2/CCNE1 = CDK2/CCNE1 (Homo sapiens, UniProt P24941); test: CDK2 homogeneous time-resolved fluorescence (HTRF) kinase assay; conditions: 3 nM CDK2/CCNE1, 1 mM ATP; read-out: CDK2/CCNE IC50 <25 nM
In short: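 An HTRF format measures CDK2/CCNE1 (3 nM) phosphorylating a 4E-BP1 Thr37/46 peptide at high (1 mM) ATP. Reactions run one hour at 23 °C, then EDTA-quenched and probed with Eu-labelled phospho-specific antibody.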

CDK4/CCND3 = CDK4/CCND3 (Homo sapiens, UniProt P11802); test: CDK4 homogeneous time-resolved fluorescence (HTRF) kinase assay; conditions: 1.5 nM CDK4/CCND3, 1 mM ATP
In short: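 IC50 values were derived from 11-point half-log dilutions, usually starting at 10 μM. Compound was first held for 20 min at 23 °C with 1.5 nM CDK4/CCND3. 1 mM ATP and 50 nM ULight-eIF4E-BP1 (Thr37/46) substrate were then added for 60 min, and the TR-FRET 665 nm signal was measured after EDTA stop and Eu-anti-phospho-4E-BP1 detection.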

[1] = read-out: CDK6/CCND IC50 <25 nM
[2] = read-out: CDK1/CCNB IC50 25-250 nM
[3] = read-out: CDK4/CCND IC50 25-250 nM
[4] = read-out: CDK1/CCNB IC50 >250 nM
[5] = read-out: CDK6/CCND IC50 25-250 nM

Chain of CDK6/CCND1 (Q00534 whole entry): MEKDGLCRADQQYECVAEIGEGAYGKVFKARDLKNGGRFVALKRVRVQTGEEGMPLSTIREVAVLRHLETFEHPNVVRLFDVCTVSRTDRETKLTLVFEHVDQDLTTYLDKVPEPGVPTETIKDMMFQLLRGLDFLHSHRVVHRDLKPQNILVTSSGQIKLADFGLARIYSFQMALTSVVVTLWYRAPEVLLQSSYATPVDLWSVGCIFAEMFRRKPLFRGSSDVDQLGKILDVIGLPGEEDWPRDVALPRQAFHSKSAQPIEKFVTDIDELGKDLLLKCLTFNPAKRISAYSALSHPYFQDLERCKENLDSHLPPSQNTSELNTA
Chain of CDK6/CCND1 (P24385 whole entry partner): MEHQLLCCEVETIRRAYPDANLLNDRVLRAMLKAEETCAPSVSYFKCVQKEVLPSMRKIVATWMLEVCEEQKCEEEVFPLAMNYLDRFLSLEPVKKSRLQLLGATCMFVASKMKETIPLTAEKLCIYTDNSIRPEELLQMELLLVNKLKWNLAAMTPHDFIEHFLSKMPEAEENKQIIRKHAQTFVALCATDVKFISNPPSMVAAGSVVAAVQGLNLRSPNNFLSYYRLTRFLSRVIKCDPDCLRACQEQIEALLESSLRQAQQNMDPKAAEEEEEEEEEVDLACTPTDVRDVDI
Chain of CDK1/CCNB1 (P06493 whole entry): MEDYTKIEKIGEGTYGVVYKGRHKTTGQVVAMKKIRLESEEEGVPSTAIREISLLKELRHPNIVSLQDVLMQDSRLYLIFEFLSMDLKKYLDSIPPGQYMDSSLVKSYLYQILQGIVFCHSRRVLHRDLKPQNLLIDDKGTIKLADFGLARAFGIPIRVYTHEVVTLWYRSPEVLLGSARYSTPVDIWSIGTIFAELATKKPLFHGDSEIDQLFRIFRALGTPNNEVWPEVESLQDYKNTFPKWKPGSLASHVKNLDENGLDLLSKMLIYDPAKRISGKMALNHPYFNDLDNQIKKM
Chain of CDK1/CCNB1 (P14635 whole entry partner): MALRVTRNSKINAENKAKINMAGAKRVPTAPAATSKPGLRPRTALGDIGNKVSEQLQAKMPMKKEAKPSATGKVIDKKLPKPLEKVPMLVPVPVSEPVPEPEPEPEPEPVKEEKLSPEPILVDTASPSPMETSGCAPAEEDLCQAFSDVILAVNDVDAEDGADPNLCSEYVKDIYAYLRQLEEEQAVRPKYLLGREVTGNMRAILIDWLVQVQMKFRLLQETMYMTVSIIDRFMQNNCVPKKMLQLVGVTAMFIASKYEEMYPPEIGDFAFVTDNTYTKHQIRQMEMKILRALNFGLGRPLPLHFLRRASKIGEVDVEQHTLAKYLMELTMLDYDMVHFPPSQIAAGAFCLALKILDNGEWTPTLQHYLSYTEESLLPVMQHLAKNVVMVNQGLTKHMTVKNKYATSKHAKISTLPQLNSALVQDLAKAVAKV
Chain of CDK4/CCND3 (P11802 whole entry): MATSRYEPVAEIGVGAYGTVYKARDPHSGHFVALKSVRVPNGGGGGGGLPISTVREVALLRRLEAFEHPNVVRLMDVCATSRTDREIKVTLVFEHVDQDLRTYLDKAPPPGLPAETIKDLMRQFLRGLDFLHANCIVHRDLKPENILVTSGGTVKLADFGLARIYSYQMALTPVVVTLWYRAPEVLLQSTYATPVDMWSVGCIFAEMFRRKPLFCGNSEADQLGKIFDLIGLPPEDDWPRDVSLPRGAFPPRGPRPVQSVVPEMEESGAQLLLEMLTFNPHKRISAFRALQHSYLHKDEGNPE
Chain of CDK4/CCND3 (P30281 whole entry partner): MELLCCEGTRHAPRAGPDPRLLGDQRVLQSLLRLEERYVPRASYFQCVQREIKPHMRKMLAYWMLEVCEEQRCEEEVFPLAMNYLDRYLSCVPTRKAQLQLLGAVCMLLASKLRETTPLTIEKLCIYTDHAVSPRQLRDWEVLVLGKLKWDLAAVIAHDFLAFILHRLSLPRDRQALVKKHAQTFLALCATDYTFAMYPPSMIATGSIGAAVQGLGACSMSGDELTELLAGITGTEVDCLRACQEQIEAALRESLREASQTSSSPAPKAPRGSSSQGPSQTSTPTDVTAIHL

Row | Structure (SMILES) | IC50 (CDK6/CCND1; [1]) [nM] | IC50 (CDK1/CCNB1; [2]) [nM] | IC50 (CDK2/CCNE1) [nM] | IC50 (CDK4/CCND3; [3]) [nM] | IC50 (CDK4/CCND3; read-out: CDK4/CCND IC50 <25 nM) [nM] | IC50 (CDK1/CCNB1; [4]) [nM] | IC50 (CDK6/CCND1; [5]) [nM] | IC50 (CDK6/CCND1; read-out: CDK6/CCND IC50 >250 nM) [nM] | IC50 (CDK4/CCND3; read-out: CDK4/CCND IC50 >250 nM) [nM]
1 | Cc1c(-c2nccc3cnc(Nc4ccc(S(C)(=O)=O)cc4)nc23)ccc2c1cnn2CCO [Example 963, 2-(4-methyl-5-(2-((4-(methylsulfonyl)phenyl)amino)pyrido [3,4-d]pyrimidin-8-yl)-1H-indazol-1-yl)ethan-1-ol] |  | 25 to 250 | < 25 | 25 to 250 |  |  | 25 to 250 |  | 
2 | Cc1c(-c2c(C#N)ccc3cnc(Nc4ccc(S(C)(=O)=O)cc4)nc23)ccc2nn(C)cc12 [Example 964, 8-(2,4-dimethyl-2H-indazol-5-yl)-2-((4-(methylsulfonyl)phenyl)amino) quinazoline-7-carbonitrile] |  | 25 to 250 | < 25 | 25 to 250 |  |  | 25 to 250 |  | 
3 | Cc1c(-c2nccc3cnc(Nc4ccc(S(C)(=O)=O)cc4)nc23)ccc2nn(C)cc12 [Example 965, 8-(2,4-dimethyl-2H-indazol-5-yl)-N-(4-(methylsulfonyl)phenyl)pyrido[3,4-d]pyrimidin-2-amine] |  |  | < 25 |  |  | > 250 |  | > 250 | > 250

Now from value to molecule:

Row | IC50 (CDK6/CCND1; [1]) [nM] | IC50 (CDK1/CCNB1; [2]) [nM] | IC50 (CDK2/CCNE1) [nM] | IC50 (CDK4/CCND3; [3]) [nM] | IC50 (CDK4/CCND3; read-out: CDK4/CCND IC50 <25 nM) [nM] | IC50 (CDK1/CCNB1; [4]) [nM] | IC50 (CDK6/CCND1; [5]) [nM] | IC50 (CDK6/CCND1; read-out: CDK6/CCND IC50 >250 nM) [nM] | IC50 (CDK4/CCND3; read-out: CDK4/CCND IC50 >250 nM) [nM] | Structure (SMILES)
4 | < 25 | 25 to 250 | < 25 | 25 to 250 |  |  |  |  |  | CS(=O)(=O)c1ccc(Nc2ncc3ccnc(C4=CCCCC4)c3n2)cc1 [Example 956, 8-(cyclohex-1-en-1-yl)-N-(4-(methylsulfonyl)phenyl)pyrido[3,4-d]pyrimidin-2-amine]
5 | < 25 | 25 to 250 | < 25 |  | < 25 |  |  |  |  | CS(=O)(=O)c1ccc(Nc2ncc3ccc(C#N)c(N4CCC(C#N)CC4)c3n2)cc1 [Example 957, 8-(4-cyanopiperidin-1-yl)-2-((4-(methylsulfonyl)phenyl)amino) quinazoline-7-carbonitrile]
6 | < 25 |  | < 25 | 25 to 250 |  | > 250 |  |  |  | CS(=O)(=O)c1ccc(Nc2ncc3ccnc(N4CCC(C#N)CC4)c3n2)cc1 [Example 958, 1-(2-((4-(methylsulfonyl)phenyl)amino)pyrido [3,4-d]pyrimidin-8-yl)piperidine-4-carbonitrile]
7 |  | 25 to 250 | < 25 | 25 to 250 |  |  | 25 to 250 |  |  | Cc1c(-c2c(C#N)ccc3cnc(Nc4ccc(S(C)(=O)=O)cc4)nc23)ccc2c1cnn2CCO [Example 962, 8-(1-(2-hydroxyethyl)-4-methyl-1H-indazol-5-yl)-2-((4-(methylsulfonyl)phenyl)amino) quinazoline-7-carbonitrile]
